For this experiment, the system named is rat model of endotoxin induced uveitis. The experiment in a line: Rat model of endotoxin-induced uveitis (EIU), topical or intravitreal treatment. It counts as in vivo, female Lewis rats. The settings on record: for overall ophthalmic examination score: vs control (BSS) topical. On the procedure: An in vivo study was conducted to assess the efficacy of intravitreal administration of compound I-22 in a rat model of endotoxin induced uveitis, one of the most appropriate models for the study of NIU (Smith et al., 1998) (Toxikon Study 16-04078-N1). Ocular inflammation was induced in female Lewis rats (n=10/group) by a single foot pad injection of LPS (100 μL) (Herbort et al., 1988, Graefe's Arch Clin Exp Ophthalmol. 226:553-558). Compound I-22 (5 mg/mL) was administered intravitreally into each eye (25 μg/eye), or topically to both eyes at 1, 3, 7, 10, and 17 hours post-LPS injection, within one hour of LPS administration. Balanced salt solution (BSS) served as a vehicle control. Retinal exams were performed prior to study start and six and 24 hours following LPS administration and scored using a Combined Draize and McDonald Shadduck scoring system, based on assessments of: retinal vasculopathy and retinal hemorrhage, exudate, and detachment.
Endotoxin-induced uveitis was created by a single injection of lipopolysaccharide (LPS; 100 μL) into one hind footpad. Ten (10) female Lewis rats per group received control (balanced salt solution, BSS) or test article (compound I-22) topically to both eyes at 1, 3, 7, 10, and 17 hours post-LPS injection. At each dosing time point, two drops (5 μL each, separated by approximately two minutes, for a total of 10 μL/eye/dose) were instilled into each eye of the animals. Ten female Lewis rats per group received control (BSS) or compound I-22 by a single intravitreal injection (IVT) in each eye at one hour post-LPS injection. Each eye received 5 μL of vehicle or test article.
Animals were anesthetized with isoflurane 1-3.5% for ophthalmic examinations. Both eyes of each animal were evaluated pre-dose using slit-lamp biomicroscopy, and an indirect ophthalmoscope or a surgical microscope, according to the Combined Draize and McDonald-Shadduck Scoring System, and the Ocular Posterior Segment Scoring Scale. All pupils were dilated with 1% tropicamide ophthalmic solution before ocular examination. Only rats showing no signs of eye irritation, ocular defects or preexisting corneal injury were used in the study.
Ophthalmic examinations were performed on both eyes of each animal approximately six and 24 hours following LPS administration, using slit-lamp biomicroscopy and a surgical microscope or via indirect ophthalmoscopy. Pupils were dilated with 1% Tropicamide Ophthalmic Solution before ophthalmic examinations.
Quantitative, continuous data from this study were analyzed using one-way ANOVA. Alternative or additional statistical methods were used as necessary.
In the same study, the efficacy of compound 1-5 was compared to that of compound 1-22. Compound 1-5 was topically administered topically to the eye at hours 1, 3, 7, 10, and 17, after LPS induction, or by a single intravitreal (IVT) injection one hour after LPS induction (n=10 per group), as was compound I-22. Ocular exams were performed 6 and 24 hours after LPS injection. Anterior segments were scored using a combined Draize and McDonald-Shadduck scoring system, and posterior segments were scored using 0 to 1 (vitreous, optic disc, retinal vasculature) and 0 to 4 (retinal and choroidal hemorrhage, exudation, and detachment) scales. Statistical significance from vehicle control was determined by ANOVA, followed by Tukey's post hoc test.

The mark [1] stands for this setting: intravitreal administration, vs vehicles.

Entries after “also recorded” stand apart in the source; their conditions may differ.

With `CC(C)(O)c1cc2oc(-c3ccccc3)nc2cc1N` [Compound I-22], where the note is “IVT, vs vehicle”, the ocular exam scores result was “significantly improved”. Further, the “sums of the mean retinal examination scores” value (IVT, vs vehicle controls (FIG. 2)) is given as “significantly reduced”. In addition, under setting [1], the Total ocular inflammation entry is given as “lower”, the anterior chamber inflammation entry is listed as “lower” and the retina-choroid inflammation entry is recorded as “lower”. Further, where the note is “overall”, the “signs of inflammation in the rat EIU model” value is “reduced”. Further, the “response in the EIU model” value (overall, I-22 compared with I-5) is on record as “slightly more positive response”. Also, the ophthalmic examination scores result (single IVT injection (25 μg/eye), approximately six and 24 hours post LPS, vs control IVT) was “significantly lower”. For the same compound, the ocular exam scores entry (topical (TO), 6 hours and 24 hours, vs vehicle) is “significantly improved”. Under “topical (TO), vs vehicle”, the “Total ocular inflammation score” value is “lower”, the “anterior chamber inflammation score” value is “lower” and the retina-choroid inflammation score entry is on record as “lower”. Under “topical at 1, 3, 7, 10, 17 h post-LPS, approximately six hours post LPS”, the “overall ophthalmic examination score” value is “significantly lower; also recorded: statistically lower”. Where the note is “topical, approximately 24 hours post LPS”, the “overall ophthalmic examination score” value is “significantly lower”.

The values are drawn from patent publication US11583529B2, “Treatment of inflammatory disorders” (Aldeyra Therapeutics, Inc., priority 2017, dated 2023).
